Our source for the EC50 values is patent US10968225B2, “Compounds and compositions for the treatment of cystic fibrosis” (Fondazione Istituto Italiano Di Tecnologia, priority 2017, dated 2021).

What is called EC50 is the concentration needed to bring the measured effect to its halfway point.

This test deals with T1, mutant CFTR (Homo sapiens, UniProt P13569, DEL508-508).
T1 construct: expressed in transfected cells
T1 sequence (P13569 with tags, fused parts or gaps DEL508-508): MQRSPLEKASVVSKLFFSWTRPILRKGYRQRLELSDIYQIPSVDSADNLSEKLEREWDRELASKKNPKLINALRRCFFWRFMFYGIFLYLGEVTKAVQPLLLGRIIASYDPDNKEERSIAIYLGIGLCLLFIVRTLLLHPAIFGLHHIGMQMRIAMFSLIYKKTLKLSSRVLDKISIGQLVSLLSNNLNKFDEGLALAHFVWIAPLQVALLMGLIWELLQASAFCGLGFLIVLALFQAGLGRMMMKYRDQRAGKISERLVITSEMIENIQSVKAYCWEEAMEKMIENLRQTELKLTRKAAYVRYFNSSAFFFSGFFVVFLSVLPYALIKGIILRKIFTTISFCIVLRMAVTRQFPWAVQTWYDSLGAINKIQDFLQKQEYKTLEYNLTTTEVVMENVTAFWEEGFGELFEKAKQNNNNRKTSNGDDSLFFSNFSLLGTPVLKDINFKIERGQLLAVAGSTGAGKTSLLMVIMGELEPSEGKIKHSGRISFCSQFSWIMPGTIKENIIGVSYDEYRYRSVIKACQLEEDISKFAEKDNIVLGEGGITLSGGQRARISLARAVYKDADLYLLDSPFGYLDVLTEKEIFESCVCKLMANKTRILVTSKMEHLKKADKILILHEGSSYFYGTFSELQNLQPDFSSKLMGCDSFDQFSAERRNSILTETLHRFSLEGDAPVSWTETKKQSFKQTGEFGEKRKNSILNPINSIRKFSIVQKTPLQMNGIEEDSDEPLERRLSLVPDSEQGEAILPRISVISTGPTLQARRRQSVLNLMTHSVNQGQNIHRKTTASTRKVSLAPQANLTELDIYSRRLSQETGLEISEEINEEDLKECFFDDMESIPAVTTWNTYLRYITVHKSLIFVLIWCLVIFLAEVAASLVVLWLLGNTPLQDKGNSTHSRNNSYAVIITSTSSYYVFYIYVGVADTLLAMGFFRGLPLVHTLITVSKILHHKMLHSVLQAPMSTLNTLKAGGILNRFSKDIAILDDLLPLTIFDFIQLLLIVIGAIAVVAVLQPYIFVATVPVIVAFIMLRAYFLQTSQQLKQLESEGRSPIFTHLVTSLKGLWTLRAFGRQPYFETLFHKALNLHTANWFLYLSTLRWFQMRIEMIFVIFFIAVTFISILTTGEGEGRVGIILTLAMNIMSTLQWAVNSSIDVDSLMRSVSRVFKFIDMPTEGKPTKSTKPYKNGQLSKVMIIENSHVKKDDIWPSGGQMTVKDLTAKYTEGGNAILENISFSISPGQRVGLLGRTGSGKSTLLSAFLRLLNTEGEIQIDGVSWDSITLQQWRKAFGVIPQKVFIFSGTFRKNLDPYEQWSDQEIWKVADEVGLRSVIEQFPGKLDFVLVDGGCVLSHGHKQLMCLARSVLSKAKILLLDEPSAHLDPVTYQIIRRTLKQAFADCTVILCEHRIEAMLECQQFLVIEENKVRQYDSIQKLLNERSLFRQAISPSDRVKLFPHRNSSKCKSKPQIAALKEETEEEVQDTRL
The test can be described thus: Fluorescence (HS-YFP) assay for CFTR activity, corrector assay. It counts as cell-based. As to conditions: CFBE41o- and FRT cells with stable expression of mutant CFTR, read-out: activity (EC50).
In the case of `COc1ncc(N(C)C(=O)c2cccc(-n3nc(C(F)(F)F)c4c3CCN(C(=O)C(C)(C)C)C4)c2)cn1` [Compound 142, 3-[5-(2,2-Dimethylpropanoyl)-3-(trifluoromethyl)-6,7-dihydro-4H-pyrazolo[4,3-c]pyridin-1-yl]-N-(2-methoxypyrimidin-5-yl)-N-methyl-benzamide], the EC50 is > 2 µM.

On to `CN(C(=O)c1cccc(-n2nc(C(F)(F)F)c3c2C(Oc2ccc(C(=O)O)c(F)c2)CCC3)c1)c1ccc2c(c1)OC(F)(F)O2` (stereo not drawn) [Compound 147, 2-Fluoro-4-[[1-[3-[(2,2-difluoro-1,3-benzodioxol-5-yl)-methyl-carbamoyl]phenyl]-3-(trifluoromethyl)-4,5,6,7-tetrahydroindazol-7-yl]oxy]benzoic acid], for which the EC50 is < 1 µM. The result for `Cc1nc2cc(F)c(N(C)C(=O)c3cccc(-n4nc(C(F)(F)F)c5c4C(Oc4ccc(C(=O)O)cc4)CCC5)c3)cc2o1` (stereo not drawn) [Compound 153, 4-[[1-[3-[(5-Fluoro-2-methyl-1,3-benzoxazol-6-yl)-methyl-carbamoyl]phenyl]-3-(trifluoromethyl)-4,5,6,7-tetrahydroindazol-7-yl]oxy]benzoic acid] reads < 1 µM; that for `[2H]C([2H])([2H])N(C(=O)c1cccc(-n2nc(C(F)(F)F)c3c2C(Oc2ccc(C(=O)O)cc2)CCC3)c1)c1ccc2c(c1)OC(F)(F)O2` (stereo not drawn) [Compound 155, 4-[[1-[3-[(2,2-Difluoro-1,3-benzodioxol-5-yl)-(trideuteriomethyl)carbamoyl]phenyl]-3-(trifluoromethyl)-4,5,6,7-tetrahydroindazol-7-yl]oxy]benzoic acid], < 1 µM.

Take `Cc1nc2ccc(N(C)C(=O)c3cccc(-n4nc(C(F)(F)F)c5c4C(Oc4ccc(C(=O)O)cc4)CCC5)c3)cc2o1` (stereo not drawn) [Compound 157, 4-[[1-[3-[Methyl-(2-methyl-1,3-benzoxazol-6-yl)carbamoyl]phenyl]-3-(trifluoromethyl)-4,5,6,7-tetrahydroindazol-7-yl]oxy]benzoic acid]: the EC50 is < 1 µM. In the case of `Cc1nc2ncc(N(C)C(=O)c3cccc(-n4nc(C(F)(F)F)c5c4C(Oc4ccc(C(=O)O)cc4)CCC5)c3)cc2o1` (stereo not drawn) [Compound 159, 4-[[1-[3-[Methyl-(2-methyloxazolo[4,5-b]pyridin-6-yl)carbamoyl]phenyl]-3-(trifluoromethyl)-4,5,6,7-tetrahydroindazol-7-yl]oxy]benzoic acid], the EC50 fell in the range of 1 to 2 µM. As for `COc1cc(OC2CCCc3c(C(F)(F)F)nn(-c4cccc(C(=O)N(C)c5ccc6c(c5)OC(F)(F)O6)c4)c32)ccc1C(=O)O` (stereo not drawn) [Compound 161, 4-[[1-[3-[(2,2-Difluoro-1,3-benzodioxol-5-yl)-methyl-carbamoyl]phenyl]-3-(trifluoromethyl)-4,5,6,7-tetrahydroindazol-7-yl]oxy]-2-methoxy-benzoic acid], the figure is < 1 µM; as for `CN(C(=O)c1cccc(-n2nc(C(F)(F)F)c3c2C(Oc2ccc(C(N)=O)cc2)CCC3)c1)c1ccc2c(c1)OC(F)(F)O2` (stereo not drawn) [Compound 162, 3-[7-(4-Carbamoylphenoxy)-3-(trifluoromethyl)-4,5,6,7-tetrahydroindazol-1-yl]-N-(2,2-difluoro-1,3-benzodioxol-5-yl)-N-methyl-benzamide], < 1 µM. Regarding `CN(C(=O)c1cccc(-n2nc(C(F)(F)F)c3c2C(Oc2ccc(C(=O)O)nc2)CCC3)c1)c1ccc2c(c1)OC(F)(F)O2` (stereo not drawn) [Compound 164, 5-[[1-[3-[(2,2-Difluoro-1,3-benzodioxol-5-yl)-methyl-carbamoyl]phenyl]-3-(trifluoromethyl)-4,5,6,7-tetrahydroindazol-7-yl]oxy]pyridine-2-carboxylic acid], the EC50 was < 1 µM.

As for `COc1cncc(N(C)C(=O)c2cccc(-n3nc(C(F)(F)F)c4c3C(Oc3ccc(C(=O)O)cc3)CCC4)c2)c1` (stereo not drawn) [Compound 166, 4-[[1-[3-[(5-Methoxy-3-pyridyl)-methyl-carbamoyl]phenyl]-3-(trifluoromethyl)-4,5,6,7-tetrahydroindazol-7-yl]oxy]benzoic acid], the EC50 was < 1 µM.

For `COc1ncc(N(C)C(=O)c2cccc(-n3nc(C(F)(F)F)c4c3C(Oc3ccc(C(=O)O)cc3)CCC4)c2)cn1` (stereo not drawn) [Compound 168, 4-[[1-[3-[(2-Methoxypyrimidin-5-yl)-methyl-carbamoyl]phenyl]-3-(trifluoromethyl)-4,5,6,7-tetrahydroindazol-7-yl]oxy]benzoic acid], the concentration giving a half-maximal response (EC50) is < 1 µM.

Turning to `CN(C(=O)c1cccc(-n2nc(C(F)(F)F)c3c2C(Oc2cccc(C(=O)O)c2)CCC3)c1)c1ccc2c(c1)OC(F)(F)O2` (stereo not drawn) [Compound 170, 3-[[1-[3-[(2,2-Difluoro-1,3-benzodioxol-5-yl)-methyl-carbamoyl]phenyl]-3-(trifluoromethyl)-4,5,6,7-tetrahydroindazol-7-yl]oxy]benzoic acid], the EC50 was < 1 µM.

`Cc1nc2ccc(N(C)C(=O)c3cccc(-n4nc(C(F)(F)F)c5c4C(Oc4ccc(C(=O)O)cc4)CCC5)c3)cn2n1` (stereo not drawn) [Compound 172, 4-[[1-[3-[Methyl-(2-methyl-[1,2,4]triazolo[1,5-a]pyridin-6-yl)carbamoyl]phenyl]-3-(trifluoromethyl)-4,5,6,7-tetrahydroindazol-7-yl]oxy]benzoic acid]: the EC50 is < 1 µM.

As for `Cc1cc2ncc(N(C)C(=O)c3cccc(-n4nc(C(F)(F)F)c5c4C(Oc4ccc(C(=O)O)cc4)CCC5)c3)cn2n1` (stereo not drawn) [Compound 174, 4-[[1-[3-[Methyl-(2-methylpyrazolo[1,5-a]pyrimidin-6-yl)carbamoyl]phenyl]-3-(trifluoromethyl)-4,5,6,7-tetrahydroindazol-7-yl]oxy]benzoic acid], the EC50 was < 1 µM. As for `Cc1cc(OC2CCCc3c(C(F)(F)F)nn(-c4cccc(C(=O)N(C)c5ccc6c(c5)OC(F)(F)O6)c4)c32)ccc1C(=O)O` (stereo not drawn) [Compound 176, 4-[[1-[3-[(2,2-Difluoro-1,3-benzodioxol-5-yl)-methyl-carbamoyl]phenyl]-3-(trifluoromethyl)-4,5,6,7-tetrahydroindazol-7-yl]oxy]-2-methyl-benzoic acid], the EC50 was < 1 µM.

In the case of `CN(C(=O)c1cccc(-n2nc(C(F)(F)F)c3c2C(Oc2cncc(C(=O)O)c2)CCC3)c1)c1ccc2c(c1)OC(F)(F)O2` (stereo not drawn) [Compound 178, 5-[[1-[3-[(2,2-Difluoro-1,3-benzodioxol-5-yl)-methyl-carbamoyl]phenyl]-3-(trifluoromethyl)-4,5,6,7-tetrahydroindazol-7-yl]oxy]pyridine-3-carboxylic acid], the EC50 is < 1 µM. The result for `CN(C(=O)c1cccc(-n2nc(C(F)(F)F)c3c2C(Oc2ccc(C(=O)O)cn2)CCC3)c1)c1ccc2c(c1)OC(F)(F)O2` (stereo not drawn) [Compound 180, 6-[[1-[3-[(2,2-Difluoro-1,3-benzodioxol-5-yl)-methyl-carbamoyl]phenyl]-3-(trifluoromethyl)-4,5,6,7-tetrahydroindazol-7-yl]oxy]pyridine-3-carboxylic acid] reads < 1 µM; that for `CN(C(=O)c1cccc(-n2nc(C(F)(F)F)c3c2C(Oc2cc(C(=O)O)ccn2)CCC3)c1)c1ccc2c(c1)OC(F)(F)O2` (stereo not drawn) [Compound 182, 2-[[1-[3-[(2,2-Difluoro-1,3-benzodioxol-5-yl)-methyl-carbamoyl]phenyl]-3-(trifluoromethyl)-4,5,6,7-tetrahydroindazol-7-yl]oxy]pyridine-4-carboxylic acid], < 1 µM.
